pIC50: −log10 of the molar value. “And” between values parts separate entries of the source, which are not always exact repeats. Equal entries are not always repeated.

This note sets out measurements from US20140357633A1, “COMPOUNDS FOR INHIBITING THE INTERACTION OF BCL2 WITH BINDING PARTNERS” (NOVARTIS AG, priority 2011, published 2014).

The target in assay [1] is BCL-2 (binding to BAD peptide) (Homo sapiens, UniProt P10415). Nature of the assay: SPR (Biacore) solution inhibition assay, BCL-2 binding to immobilized BAD peptide. The note with it: biotinylated BAD peptide surface, 56 nM BCL-2, 25° C.; range = high and low IC50 values from multiple experiments; read-out: BCL2_SPR IC50 BAD. An excerpt:
(§1) The present method includes utility of a Surface plasmon resonance (SPR)-based biosensor (Biacore™′ GE Healthcare, Uppsala, Sweden) to characterize BCL-2 inhibitors.
(§2) Biacore™ utilizes the phenomenon of surface plasmon resonance (SPR) to detect and measure binding interactions. In a typical Biacore experiment, one of the interacting molecules (ligand) is immobilized on a flexible dextran matrix while the interacting partner (analyte) is allowed to flow across that surface. A binding interaction results in an increase in mass on the sensor surface and a corresponding direct change in the refractive index of the medium in the vicinity of the sensor surface. Changes in refractive index or signal are recorded in resonance units (R.U.) Signal changes due to association and dissociation of complexes are monitored in a non-invasive manner, continuously and in real-time, the results of which are reported in the form of a sensorgram.
(§3) The SPR assay is configured to examine solution inhibition of BCL-2 binding to peptide derivatized sensor surfaces to generate IC50 values as a measure of inhibitor potency.
(§4) Biacore™ A100 (GE Healthcare, Uppsala, Sweden) was used to conduct all experiments reported herein. Sensor surface preparation and all interaction analyses experiments were performed at 25° C. Reagents were purchased from GE Healthcare. Running buffer containing 10 mM Hepes, pH7.4, 150 mM sodium chloride, 1.25 mM Dithiothreitol, 3% Dimethyl sulfoxide and 0.05% polysorbate 20 were utilized throughout all analyses.
(§5) Biotinylated BAK, BAD and NOXA peptides were diluted to 10 nM in running buffer and captured onto a sensor surface pre-derivatized with streptavidin (sensor chip SA) to peptide surface densities in the range 50-100 R.U. Peptide captured surfaces were blocked with 500 μM PEO2-Biotin.
(§6) Interaction analyses were performed by first equilibrating each sample within a 6 point three fold compound dilution series in the range 16 μM to […] with 56 nM BCL-2 for one hour during instrument start-up procedures. Protein compound mixtures were then injected over each peptide surface in parallel for 60 seconds at a flow-rate of 30 μL/min. 56 nM BCL-2 control samples were also prepared and run at regular intervals during the assay. Surface regeneration was performed at the end of each analysis cycle by two 30 second injections of 10 mM Glycine, pH 2.5, 1M Sodium Chloride, 0.05% polysorbate 20. Samples and control compound samples were run in duplicate and controls are also run at regular intervals during the assay to monitor surface and assay performance.
(§7) Data analyses are carried out using Biacore™ A100 evaluation software v1.1 to validate assay quality. Binding level report points were used relative to BCL-2 control samples to calculate % inhibition values for each compound protein mixture. […] The range of data shown in table 1 represents the high and low IC50 values obtained from multiple experiments.

Assay [2] concerns the target BCL-2 (binding to BAK peptide) (Homo sapiens, UniProt P10415). Nature of the assay: SPR (Biacore) solution inhibition assay, BCL-2 binding to immobilized BAK peptide. The note with it: biotinylated BAK peptide surface, 56 nM BCL-2, 25° C.; range = high and low IC50 values from multiple experiments; read-out: BCL2_SPR IC50 BAK.
Text: as §1, §2, §3, §4, §5, §6, §7
(In SPR one partner is held on a chip, and binding of the other changes the refractive index at the surface.)

Sequence of BCL-2 (binding to BAD peptide) (P10415 whole entry): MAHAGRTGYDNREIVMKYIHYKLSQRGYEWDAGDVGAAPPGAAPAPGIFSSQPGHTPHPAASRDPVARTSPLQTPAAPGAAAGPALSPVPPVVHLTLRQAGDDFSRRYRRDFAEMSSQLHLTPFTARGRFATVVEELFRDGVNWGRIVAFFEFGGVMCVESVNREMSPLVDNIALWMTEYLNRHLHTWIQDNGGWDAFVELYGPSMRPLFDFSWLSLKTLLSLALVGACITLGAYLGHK
Sequence of BCL-2 (binding to BAK peptide) (P10415 whole entry): as above

With `CCCCN(CCCC)C(=O)c1cc(C)n(-c2ccc(NC(=O)C(C)(C)CC(=O)O)cc2C(=O)N2Cc3ccccc3C[C@H]2CO)n1` [Example 39], the pIC50 in assay [1] was 6.78 to 6.84; in assay [2], 6.91 to 6.98.
As for `CCCCN(CCCC)C(=O)c1cc(C)n(-c2ccc(NC(=O)C3CC(=O)N(Cc4ccccc4Cl)C3)cc2C(=O)N2Cc3ccccc3C[C@H]2CO)n1` (stereo partly drawn) [Example 41], the pIC50 in assay [1] was 7.01 to 7.02; in assay [2] it was 7.08 to 7.12.
As to `CCCCN(CCCC)C(=O)c1cc(C)n(-c2ccc(NC(=O)CC(C(=O)O)c3ccccc3)cc2C(=O)N2Cc3ccccc3C[C@H]2CO)n1` (stereo partly drawn) [Example 42], the negative-log IC50 (pIC50) in assay [1] is 7.23 to 7.29; in assay [2] it was 7.21 to 7.26.
The like results for `CCCCN(CCCC)C(=O)c1cc(C)n(-c2ccc(NC(=O)c3cn4cc(Cl)ccc4n3)cc2C(=O)N2Cc3ccccc3C[C@H]2CO)n1` [Example 43] were, in that order, 6.22 to 6.28 and 6.31 to 6.38.
In the case of `CCCCN(CCCC)C(=O)c1cc(C)n(-c2ccc(NC(=O)c3ncoc3-c3ccccc3)cc2C(=O)N2Cc3ccccc3C[C@H]2CO)n1` [Example 44], the pIC50 in assay [1] is 6.55 to 6.56; in assay [2], 6.62 to 6.63.
`CCCCN(CCCC)C(=O)c1cc(C)n(-c2ccc(NC(=O)c3nn(C)c4ncccc34)cc2C(=O)N2Cc3ccccc3C[C@H]2CO)n1` [Example 45]: the negative logarithm of the IC50 (pIC50) is 6.11 to 6.16 in assay [1] and 6.25 to 6.30 in assay [2].
Regarding `CCCCN(CCCC)C(=O)c1cc(C)n(-c2ccc(NC(=O)c3oc(-c4ccccc4)nc3C)cc2C(=O)N2Cc3ccccc3C[C@H]2CO)n1` [Example 46], the pIC50 in assay [1] is 6.12 to 6.20; in assay [2], 6.08 to 6.16.
With `CCCCN(CCCC)C(=O)c1cc(C)n(-c2ccc(NC(=O)c3cc(C(C)C)nn3C)cc2C(=O)N2Cc3ccccc3C[C@H]2CO)n1` [Example 47], the pIC50 was 6.23 to 6.28 in assay [1] and 6.22 to 6.23 in assay [2].
With `CCCCC(CCCC)C(=O)c1cc(C)n(-c2ccc(NC(=O)COc3ccc(N4CCCC4=O)cc3)cc2C(=O)N2Cc3ccccc3C[C@H]2CO)n1` [Example 48], the negative-log IC50 (pIC50) in assay [1] is 6.06 to 6.07; in assay [2] it was 6.22 to 6.24.
As for `CCCCN(CCCC)C(=O)c1cc(C)n(-c2ccc(NC(=O)C3CC(=O)N(Cc4ccc(F)cc4)C3)cc2C(=O)N2Cc3ccccc3C[C@H]2CO)n1` (stereo partly drawn) [Example 50], the values for the pIC50 in assay [1] and in assay [2] were 6.14 to 6.15 and 6.19 to 6.26, respectively.
Take `CCCCN(CCCC)C(=O)c1cc(C)n(-c2ccc(NC(=O)C3=CC(c4ccccc4)NC(=O)N3)cc2C(=O)N2Cc3ccccc3C[C@H]2CO)n1` (stereo partly drawn) [Example 51]: the negative logarithm of the IC50 (pIC50) in assay [1] was 6.80 to 6.81; in assay [2], 6.90 to 6.91.
With `CCCCN(CCCC)C(=O)c1cc(C)n(-c2ccc(NC(=O)[C@@H](C)c3ccccc3)cc2C(=O)N2Cc3ccccc3C[C@H]2CO)n1` [Example 52], the pIC50 is 7.05 to 7.07 in assay [1] and 7.10 to 7.12 in assay [2].
The like results for `CCCCN(CCCC)C(=O)c1cc(C)n(-c2ccc(NC(=O)C(CC(=O)OCC)c3ccccc3)cc2C(=O)N2Cc3ccccc3C[C@H]2CO)n1` (stereo partly drawn) [Example 53] were, in that order, 6.73 to 6.74 and 6.79.
As for `CCCCN(CCCC)C(=O)c1cc(C)n(-c2ccc(NC(=O)Cc3ccc4ccccc4c3)cc2C(=O)N2Cc3ccccc3C[C@H]2CN)n1` [Example 54], the pIC50 is 7.17 and 7.10 to 7.16 in assay [1]; 7.23 to 7.24 and 7.16 to 7.23 in assay [2].
Turning to `CCCCN(CCCC)C(=O)c1cc(C)n(-c2ccc(NC(=O)C(CC(=O)NC)c3ccccc3)cc2C(=O)N2Cc3ccccc3C[C@H]2CO)n1` (stereo partly drawn) [Example 55], the pIC50 in assay [1] was 6.89 to 7.00; in assay [2], 6.96 to 7.09.
As to `CCCCN(CCCC)C(=O)c1cc(C)n(-c2ccc(NC(=O)CCNC(C)=O)cc2C(=O)N2Cc3ccccc3C[C@H]2CO)n1` [Example 56], the pIC50 is 5.96 in assay [1] and 6.14 in assay [2].
Regarding `CCCCN(CCCC)C(=O)c1cc(C)n(-c2ccc(NC(=O)Cc3ccccc3F)cc2C(=O)N2Cc3ccccc3C[C@H]2CO)n1` [Example 57], the pIC50 in assay [1] is 7.10 to 7.11; in assay [2], 7.17 to 7.20.
In the case of `CCCCN(CCCC)C(=O)c1cc(C)n(-c2ccc(NC(=O)c3cn4ccccc4n3)cc2C(=O)N2Cc3ccccc3C[C@H]2CO)n1` [Example 58], the pIC50 was 6.55 to 6.60 in assay [1] and 6.69 in assay [2].

A word on the pIC50: it is the negative decadic logarithm of the IC50, by convention in mol/L.
